From ChEMBL document CHEMBL4020735, “Design, synthesis, and evaluation of multitarget-directed ligands against Alzheimer's disease based on the fusion of donepezil and curcumin” (Bioorg Med Chem, 2017)
Active and inactive are the calls of the source. The rule behind the calls is not given here.

Key:
Acetylcholinesterase = Acetylcholinesterase (Electrophorus electricus, UniProt O42275)
Description: Inhibition of electric eel AChE using acetylthiocholine iodide as substrate preincubated for 15 mins followed by substrate addition by spectrophotometric analysis

[1] = Antioxidant activity assessed as trolox equivalent of APPH-induced radical scavenging activity at 0.117 to 10 uM preincubated for 10 mins followed by AAPH addition measured every minute for 90 mins by ORAC fluorescein assay; type: functional
[2] = Permeability of the compound at […] after 10 hrs by PAMPA; type: physicochemical; details: read-out: permeability
[3] = target: Amyloid-beta precursor protein (Homo sapiens) (UniProt P05067); test: Inhibition of self-mediated aggregation of amyloid beta (1 to 42 residues) (unknown origin) at 20 uM after 48 hrs by Thioflavin T fluorescence assay relative to control
Chain of Amyloid-beta precursor protein (Homo sapiens) (P05067 whole entry, the tested form may be a part): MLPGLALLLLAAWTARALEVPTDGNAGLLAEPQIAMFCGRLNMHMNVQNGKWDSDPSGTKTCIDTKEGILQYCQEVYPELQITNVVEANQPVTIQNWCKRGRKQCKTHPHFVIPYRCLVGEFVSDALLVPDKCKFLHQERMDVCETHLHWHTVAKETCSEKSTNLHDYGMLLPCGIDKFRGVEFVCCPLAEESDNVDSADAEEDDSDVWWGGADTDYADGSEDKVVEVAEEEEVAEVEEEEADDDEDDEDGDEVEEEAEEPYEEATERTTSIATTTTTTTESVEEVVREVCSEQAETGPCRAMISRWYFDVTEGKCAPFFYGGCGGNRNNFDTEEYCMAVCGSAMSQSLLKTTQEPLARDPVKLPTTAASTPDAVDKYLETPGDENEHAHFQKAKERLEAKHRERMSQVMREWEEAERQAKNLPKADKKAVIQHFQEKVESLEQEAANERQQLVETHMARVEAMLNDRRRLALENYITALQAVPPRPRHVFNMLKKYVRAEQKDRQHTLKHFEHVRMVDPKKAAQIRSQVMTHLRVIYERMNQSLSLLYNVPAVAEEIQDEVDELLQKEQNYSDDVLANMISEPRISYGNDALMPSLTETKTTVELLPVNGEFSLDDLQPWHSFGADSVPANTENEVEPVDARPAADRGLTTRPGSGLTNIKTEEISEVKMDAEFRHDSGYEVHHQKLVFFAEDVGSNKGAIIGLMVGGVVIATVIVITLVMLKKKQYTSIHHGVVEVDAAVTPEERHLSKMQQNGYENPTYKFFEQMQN

Cholinesterase = Cholinesterase (Equus caballus, UniProt P81908)
Chain of Cholinesterase (P81908 whole entry): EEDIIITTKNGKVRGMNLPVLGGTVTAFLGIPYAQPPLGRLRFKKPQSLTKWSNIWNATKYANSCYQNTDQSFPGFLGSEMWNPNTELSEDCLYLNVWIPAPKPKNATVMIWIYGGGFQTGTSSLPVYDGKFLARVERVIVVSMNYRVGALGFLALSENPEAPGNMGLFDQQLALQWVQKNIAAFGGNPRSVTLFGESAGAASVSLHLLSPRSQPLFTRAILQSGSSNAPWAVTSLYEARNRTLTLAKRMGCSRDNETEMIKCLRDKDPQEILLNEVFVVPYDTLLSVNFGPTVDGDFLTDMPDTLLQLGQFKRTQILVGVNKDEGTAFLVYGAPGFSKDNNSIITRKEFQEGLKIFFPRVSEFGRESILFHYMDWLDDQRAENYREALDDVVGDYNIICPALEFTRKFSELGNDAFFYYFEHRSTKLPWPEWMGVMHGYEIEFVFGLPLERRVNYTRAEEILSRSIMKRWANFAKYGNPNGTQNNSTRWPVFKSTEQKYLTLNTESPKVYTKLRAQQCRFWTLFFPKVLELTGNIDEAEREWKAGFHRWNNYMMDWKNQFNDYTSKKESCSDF
Description: Inhibition of equine serum BuChE using acetylthiocholine iodide as substrate preincubated for 15 mins followed by substrate addition by spectrophotometric analysis

[4] = target: Acetylcholinesterase (Electrophorus electricus) (UniProt O42275); test: Mixed type inhibition of electric eel AChE using acetylthiocholine iodide as substrate preincubated for 15 mins followed by substrate addition by Lineweaver-Burk plot analysis
Chain of Acetylcholinesterase (Electrophorus electricus) (O42275 24-633 limits assumed): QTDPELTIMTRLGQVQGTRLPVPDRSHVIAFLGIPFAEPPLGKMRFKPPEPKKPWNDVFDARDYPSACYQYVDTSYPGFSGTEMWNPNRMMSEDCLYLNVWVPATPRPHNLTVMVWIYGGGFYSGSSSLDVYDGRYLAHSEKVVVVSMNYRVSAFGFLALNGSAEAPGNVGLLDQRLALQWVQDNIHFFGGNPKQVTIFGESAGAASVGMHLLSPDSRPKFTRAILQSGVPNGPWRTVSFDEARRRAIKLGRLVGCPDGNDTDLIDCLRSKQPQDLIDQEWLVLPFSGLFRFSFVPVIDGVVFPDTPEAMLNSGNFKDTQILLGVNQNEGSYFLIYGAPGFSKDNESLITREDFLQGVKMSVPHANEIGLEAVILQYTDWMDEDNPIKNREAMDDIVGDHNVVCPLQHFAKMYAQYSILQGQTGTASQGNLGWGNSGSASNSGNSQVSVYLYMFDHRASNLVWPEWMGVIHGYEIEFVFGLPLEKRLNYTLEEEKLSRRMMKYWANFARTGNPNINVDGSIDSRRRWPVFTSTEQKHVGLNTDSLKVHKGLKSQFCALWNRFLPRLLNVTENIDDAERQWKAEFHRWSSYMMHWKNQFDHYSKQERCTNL

[5] = Metal chelating activity of compound assessed as compound-Cu2+ complex formation at 20 uM after 30 mins by UV-Vis spectrophotometric analysis; type: functional
[6] = Metal chelating activity of compound assessed as compound-Fe2+ complex formation at 20 uM after 30 mins by UV-Vis spectrophotometric analysis; type: functional
[7] = Metal chelating activity of compound assessed as compound-Zn2+ complex formation at 20 uM after 30 mins by UV-Vis spectrophotometric analysis; type: functional

Chain of Acetylcholinesterase (O42275 whole entry): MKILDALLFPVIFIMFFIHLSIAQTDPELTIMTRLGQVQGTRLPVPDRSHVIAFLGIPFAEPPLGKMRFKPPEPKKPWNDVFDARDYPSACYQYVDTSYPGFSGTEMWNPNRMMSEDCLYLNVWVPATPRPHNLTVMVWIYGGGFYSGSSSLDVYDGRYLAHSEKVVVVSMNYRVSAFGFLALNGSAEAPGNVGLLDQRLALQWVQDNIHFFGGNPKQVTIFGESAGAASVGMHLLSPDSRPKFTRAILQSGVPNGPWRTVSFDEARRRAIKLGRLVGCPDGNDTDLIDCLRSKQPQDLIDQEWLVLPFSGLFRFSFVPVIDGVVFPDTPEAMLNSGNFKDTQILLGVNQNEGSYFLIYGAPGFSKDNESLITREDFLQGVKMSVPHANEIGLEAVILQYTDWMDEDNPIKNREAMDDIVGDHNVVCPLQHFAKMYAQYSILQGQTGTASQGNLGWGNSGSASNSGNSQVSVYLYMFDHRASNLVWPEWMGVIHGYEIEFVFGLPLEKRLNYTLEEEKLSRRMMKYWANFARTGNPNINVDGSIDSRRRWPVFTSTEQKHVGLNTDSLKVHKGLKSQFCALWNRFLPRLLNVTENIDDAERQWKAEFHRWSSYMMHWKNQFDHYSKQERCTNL

| Structure (SMILES) | IC50 (Acetylcholinesterase) | IC50 (Cholinesterase) | other results |
| --- | --- | --- | --- |
| COc1ccc(C(=O)CC(=O)CC2CCN(Cc3cccc(C)c3)CC2)cc1O | 0.228 µM | 9.78 µM | Activity [1]: 2.49 equiv; Papp at 10 h [2]: 11.3 ×10⁻⁶ cm/s; inhibition [3]: 30.4% |
| COc1cccc(C(=O)C(CCC2CCN(Cc3cccc(C)c3)CC2)C(C)=O)c1 (stereo not given) | 0.555 µM | 1.85 µM | – |
| COc1ccc(C(=O)C(CCC2CCN(Cc3ccccc3)CC2)C(C)=O)cc1OC (stereo not given) | 0.373 µM | 2.82 µM | – |
| COc1ccc(C(=O)C(CCC2CCN(Cc3cccc(C)c3)CC2)C(C)=O)cc1OC (stereo not given) | 0.263 µM | 2 µM | – |
| COc1ccc(C(=O)C(CCC2CCN(Cc3cccc(C)c3)CC2)C(C)=O)cc1O (stereo not given) | 0.621 µM | 16.6 µM | – |
| COc1ccc(C(=O)CC(=O)CC2CCN(Cc3ccccc3)CC2)cc1OC | 0.149 µM | 2.33 µM | Activity [1]: 1.1 equiv; Papp at 10 h [2]: 12.1 ×10⁻⁶ cm/s; inhibition [3]: 22% |
| COc1ccc(C(=O)C(CC2CCN(Cc3ccccc3)CC2)C(C)=O)cc1OC (stereo not given) | 2.55 µM | 20.8 µM | – |
| COc1cc(/C=C/C(=O)CC(=O)/C=C/c2ccc(O)c(OC)c2)ccc1O | – | – | Activity [1]: 2.52 equiv |
| COc1ccc(C(=O)C(CCC2CCN(Cc3ccccc3)CC2)C(C)=O)cc1 (stereo not given) | 0.517 µM | 1.64 µM | – |
| COc1ccc(C(=O)CC(=O)CC2CCN(Cc3ccccc3)CC2)cc1O | 0.187 µM | 12.4 µM | Activity [1]: 3.07 equiv; Papp at 10 h [2]: 11.8 ×10⁻⁶ cm/s; inhibition [3]: 45.3%; inhibition [4]: Active; Activity [5]: Active; Activity [6]: Active; Activity [7]: inactive |
| COc1cc(C(=O)C(CCC2CCN(Cc3cccc(C)c3)CC2)C(C)=O)ccc1O (stereo not given) | 0.961 µM | 3.36 µM | – |
| COCOc1ccc(C(=O)C(CCC2CCN(Cc3cccc(C)c3)CC2)C(C)=O)cc1OC (stereo not given) | 0.34 µM | 3.09 µM | – |
| COc1cccc(C(=O)C(CC2CCN(Cc3ccccc3)CC2)C(C)=O)c1 (stereo not given) | 1.78 µM | 14.4 µM | – |
| COc1cc(C(=O)C(CCC2CCN(Cc3ccccc3)CC2)C(C)=O)ccc1O (stereo not given) | 2.05 µM | 15.6 µM | – |
